Assay results published in the METLIN SMRT retention time set (Domingo-Almenara et al. 2019).

Test: gradient 5% acetonitrile 3 min, to 50% in 2 min, to 85% in 15 min, held 3 min, 100 µL/min
Details: column: Zorbax Extend-C18 2.1 x 50 mm; eluents: water / acetonitrile, 0.1% formic acid
Method in brief: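 Pure standards were run in mixtures of ~100 molecules by HPLC coupled to a quadrupole time-of-flight mass spectrometer. The column was a Zorbax Extend-C18 (2.1 × 50 mm, 1.8 μm) at 100 μL/min, with water and acetonitrile each containing 0.1% formic acid, in positive and negative ionization mode. Dead and dwell volumes were 40 μL and 900 μL. Retention time was taken from computationally picked adduct peaks, each manually inspected, with data collected over 3 months.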

Compound | RP-LC retention time [s]
CCCCNC(=O)C(=O)NCC1OCCc2ccccc21 (configuration not stated) | 879
CCCCNC(=O)Cn1c(=O)c2cnc(-c3ccccc3)nc2n(CC)c1=O | 937
Clc1ccc2nc(-c3cccc(Br)c3)c(Nc3ccc4c(c3)OCCO4)n2c1 | 972
CC(C)n1cnc(S(=O)(=O)N2CCC(C(=O)NC3CCCCCCC3)CC2)c1 | 827
CCc1nc(OCC(=O)Nc2ccc(F)c(Cl)c2)c2ccccc2n1 | 888
Cc1ccc(-c2nc3ccc(Cl)cn3c2Nc2ccc3c(c2)OCCO3)cc1 | 779
CN(CC1CCOC1)C(=O)Nc1cccc(Cl)c1F (configuration not stated) | 733
Cc1onc(-c2ccccc2Cl)c1C(=O)NCCN(C)C | 591
CN(C)c1nccnc1OC1CCN(C(=O)c2ccncc2)C1 (configuration not stated) | 553
CCCCN1C(=O)C(C)(C(=O)Nc2ccc(F)cc2F)Oc2cccnc21 (configuration not stated) | 1050
CCC(C(=O)Nc1cnn(-c2ncc(N(C)C)cn2)c1)c1ccccc1 (configuration not stated) | 811
O=C(NCc1cccc(F)c1)N1CCCC(Cn2cnc3cccnc32)C1 (configuration not stated) | 652
Cc1nn2c(CNC(=O)c3cccc(C(F)(F)F)c3)c(C)nc2s1 | 688
N#Cc1cccc(NC(=O)Cn2nc3n(c2=O)CCCCC3)c1 | 674
O=C1CCCc2cc(S(=O)(=O)NCc3cccc(Br)c3)ccc2N1 | 764
COc1ccc(NC(=O)c2cccn2Cc2noc(C)n2)cc1Cl | 859
Cc1cc2c(=O)n(CC(=O)Nc3ccc(F)cc3Cl)ccc2s1 | 812
CN(C)C[C@@H]1CN(C)C[C@H]1NC(=O)c1ccc(Br)cc1 | 553
Cc1ccc(C)c(Nc2nc(-c3ccccc3)cs2)c1 | 1200

Compound | RP-LC retention time [s]
COc1ccc(NC(=O)c2noc3c2CC(C)CC3)c(OC)c1 (configuration not stated) | 1170
CCOc1ccc(NC(=O)N2CCCC(C)(C(=O)NCc3ccccc3)C2)cc1 (configuration not stated) | 859
O=C(NCc1cccnc1)C1CC(=O)N(CCc2c[nH]c3ccc(Cl)cc23)C1 (configuration not stated) | 613
O=C(NC1CCCc2c1[nH]c1ccc(F)cc21)c1ccncc1 (configuration not stated) | 774
CCc1sc(NC(=O)c2cc(OC)cc(OC)c2)nc1-c1ccccc1 | 1200
Nc1cc(C2CCN(C(=O)c3ccccc3F)CC2)no1 | 648
O=C(NCC(O)c1cccc2ccccc12)c1c(F)cccc1Cl (configuration not stated) | 796
O=C(NCCc1ccccc1)Nc1cccc(-c2nnc3n2CCCC3)c1 | 694
CC1CCCC(NC(=O)CCn2cnc3onc(-c4ccc(F)cc4)c3c2=O)C1C (configuration not stated) | 1050
COc1ccc(-c2nc(Nc3cnc(SC)nc3)sc2C)cc1 | 1050
O=C(Nc1cnc(N2CCCC2)nc1)c1ccccc1C(F)(F)F | 740
COCC(=O)Nc1nnc(SCc2nnc(-c3ccc4c(c3)OCO4)o2)s1 | 717
CCCCN1C(SCC(=O)NCc2cccs2)=NS(=O)(=O)c2ccccc21 | 782
CSc1ccc(-c2nc3ccc(C)cn3c2Nc2ccc(Cl)cc2)cc1 | 693
O=C(NCc1nc(-c2ccc3c(c2)ncn3C2CCCC2)no1)c1ccco1 | 655
CC1Cc2ccccc2N1C(=O)Cc1cc(-c2ccc(F)cc2)on1 (configuration not stated) | 1000
CCCC(=O)Nc1ccc(CCc2nc3ccc(C(=O)NCCOC)cc3[nH]2)cc1 | 599
O=C(c1n[nH]c2ccccc12)N1CCn2c(nnc2-c2ccccc2)C1 | 664
CCN1C(=O)c2cccnc2Sc2cc(NC(=O)Cc3ccccc3F)ccc21 | 826

The next lines start with the values.

RP-LC retention time [s] | Compound
969 | CC1CCN(C(=O)C2CCN(S(=O)(=O)c3ccc4c(c3)sc(=O)n4C(C)C)CC2)CC1
571 | CC1=C(c2ccccc2)S(=O)(=O)N=C1N1CCCN(C(=O)c2ccsc2)CC1
811 | Cc1ccc(NC(=O)N2CCC(n3cnc4cc(F)ccc4c3=O)CC2)c(C)c1
1150 | Cc1ccc(C)c(CNS(=O)(=O)c2c(C)sc(C)c2-c2n[nH]c(C)c2C)c1
750 | CCCCCC(=O)Nc1cc(-c2nc3ccc(C)cc3[nH]2)ccc1C
1280 | Cc1sc(C)c(S(=O)(=O)N2CCc3ccccc3C2)c1-c1cc(C(F)(F)F)on1
959 | COc1ccc(-c2nc(-c3ccc4c(c3)oc(=O)n4C)no2)c(OC)c1
642 | CCn1ccc(-c2nc(-c3ccc4c(c3)ncn4CCC(=O)N3CCCC3)no2)n1
619 | CCOc1ccc(NS(=O)(=O)c2cc(C(=O)N3CCN(c4ccccn4)CC3)n[nH]2)cc1
755 | Cc1cc(C)c(C)c(S(=O)(=O)N2CCN(c3nc4ccncc4n(C)c3=O)CC2)c1C
696 | CS(=O)(=O)N1CCOc2ccc(NC(=O)C3CC3)cc2C1
693 | Cc1nn(C)c(C)c1CNC(=O)CN1C(=O)C2CCCCN2c2ccc(S(=O)(=O)N(C)C)cc21 (configuration not stated)
854 | COc1ccc(-c2nc(N3CCSCC3)ncc2C(=O)O)cc1
692 | Cc1ccnc(C(=O)Nc2ccc(Nc3ccc(-n4nc(C)c(C)c4C)nn3)cc2)n1
1120 | COc1ccc(F)cc1S(=O)(=O)N1CCC(F)(c2nc(CC(C)C)no2)CC1
749 | CCc1cc(=O)n(CC(=O)NCc2ccc(F)cc2Cl)c(N2CCOCC2)n1
740 | CCc1nc(-c2cc(S(=O)(=O)NCC(=O)NC3CC3)c(C)s2)no1
674 | CCOC(=O)C1=C(CN2CCCC(C(=O)OCC)C2)NC(=O)NC1c1ccc(C)cc1 (configuration not stated)
946 | Cc1ccc(N2C(=O)CN(S(C)(=O)=O)CC2(C)C(=O)NC2CCCCCC2)cc1Cl (configuration not stated)
960 | CC(=O)Nc1nc(-c2ccc(S(=O)(=O)N3CCN(c4ccccc4)CC3)cc2)cs1
829 | CC1Oc2ccc(S(=O)(=O)N3CCC(C(=O)Nc4ccc(F)cc4)CC3)cc2NC1=O (configuration not stated)
932 | Cc1ccc(CNS(=O)(=O)c2ccc3c(c2)C(=O)N(C)c2ncccc2O3)cc1
562 | COCCn1c(CCCC(=O)N2CCN(c3ccccn3)CC2)nc2cccnc21
814 | Cc1nnc(-c2ccc3ccn(CC(=O)N4CCCc5ccccc54)c3c2)o1
1230 | CCOc1cccc(-c2noc(Cn3cnc4c(cnn4-c4cc(Cl)ccc4C)c3=O)n2)c1
858 | COc1ccc(NC(=O)C2CCc3nc(N4CCOCC4)ncc3C2)cc1C(F)(F)F (configuration not stated)
698 | CCOc1ccc(-c2cc3n(n2)CCCN(C(=O)c2cc(C)n(C)n2)C3)cc1
630 | CC(NC(=O)C1CCc2nc(N3CCOCC3)ncc2C1)c1ccco1 (configuration not stated)
833 | CC(=O)N1CCc2ccccc2C1C(=O)NCc1ccc(C)c(C)c1 (configuration not stated)
